From patent publication US20240325375A1, “Effect of YEL002 on Psychological and Psychiatric Factors in Health and Disease” (RadMit, Inc., priority 2023, published 2024)

Tested on: lymphoma
Assay: Lymphoma incidence in mice (National Institute of Health experiment)
Assay type: in vivo
Settings: reduced from 10-20%
Experimental: In another experiment at the National Institute of Health, in other mice after radiation exposure which caused 90% of them to develop lymphoma, there was a reduction of the lymphoma incidence to 40% and the spontaneous frequency was reduced from 10-20% down to 0%. […] This was observed after treating mice right after birth, if humans are treated later in life it is possible that only 10 or 5 years are added and probably more for DNA repair deficient diseases like ataxia telangiectasia (ATM) which is still very substantial, especially, since it treats and reduces the likelihood of many diseases.

COc1ccc2cc(-c3nc4ccc(C)cn4c3NCc3ccco3)c(=O)[nH]c2c1 [YEL002]
spontaneous lymphoma frequency: 0%
